Our source for the IC50 values is patent publication US12544374B2, “AZA-quinoline compounds and uses thereof” (Novartis AG, priority 2019, dated 2026).

Like-named read-outs stand apart in the source and are kept apart here.

The target in assay [1] is wild type PRC2 (wtPRC2) complex (Homo sapiens (Human), UniProt Q15910). The experiment in a line: EZH2 LC-MS assay (LC-Qualified). The assay is classed as biochemical. The settings on record: (a) LC-Qualified assay. On the procedure:
Representative compounds of the invention were serially and separately diluted 3-fold in DMSO to obtain twelve concentrations. […] Solutions (6 μL) of 80 nM wild type PRC2 (wtPRC2) complex and 60 μM SAM in reaction buffer (20 mM Tris, pH 8.0, 0.1% BSA, 0.01% Triton, 0.5 mM DTT) were added to the wells that were then incubated with the test compound for 20 min. A 6 μL solution of 3 μM of the substrate peptide H3K27me1 (histone H3[21-44]-K27me1-biotin) and 6 μM regulatory peptide H3K27me3 (histone H3[21-44]-K27me3) in reaction buffer was added to initiate each reaction. […] The data were fit to a dose response equation using the program Helios to get the IC50 values of the test compound.

The target of assay [2] is EZH2 (Homo sapiens (Human), UniProt Q15910). The experiment in a line: ELISA (H3K27 methylation) assay in G401 cell. The assay is classed as cell-based. The following applies: (b) ELISA Qualified assay, 48 h. On the procedure: Representative compounds of the invention were serially and separately diluted 3-fold in DO to obtain a total of eight or twelve concentrations. Then the compounds were added to G401 cell cultured in 384-well plate at 1:500 dilution to obtain the highest concentration of 20 μM. The cells were further cultured for 48 h before ELISA procedure.
Sequence of EZH2 (Q15910 whole entry): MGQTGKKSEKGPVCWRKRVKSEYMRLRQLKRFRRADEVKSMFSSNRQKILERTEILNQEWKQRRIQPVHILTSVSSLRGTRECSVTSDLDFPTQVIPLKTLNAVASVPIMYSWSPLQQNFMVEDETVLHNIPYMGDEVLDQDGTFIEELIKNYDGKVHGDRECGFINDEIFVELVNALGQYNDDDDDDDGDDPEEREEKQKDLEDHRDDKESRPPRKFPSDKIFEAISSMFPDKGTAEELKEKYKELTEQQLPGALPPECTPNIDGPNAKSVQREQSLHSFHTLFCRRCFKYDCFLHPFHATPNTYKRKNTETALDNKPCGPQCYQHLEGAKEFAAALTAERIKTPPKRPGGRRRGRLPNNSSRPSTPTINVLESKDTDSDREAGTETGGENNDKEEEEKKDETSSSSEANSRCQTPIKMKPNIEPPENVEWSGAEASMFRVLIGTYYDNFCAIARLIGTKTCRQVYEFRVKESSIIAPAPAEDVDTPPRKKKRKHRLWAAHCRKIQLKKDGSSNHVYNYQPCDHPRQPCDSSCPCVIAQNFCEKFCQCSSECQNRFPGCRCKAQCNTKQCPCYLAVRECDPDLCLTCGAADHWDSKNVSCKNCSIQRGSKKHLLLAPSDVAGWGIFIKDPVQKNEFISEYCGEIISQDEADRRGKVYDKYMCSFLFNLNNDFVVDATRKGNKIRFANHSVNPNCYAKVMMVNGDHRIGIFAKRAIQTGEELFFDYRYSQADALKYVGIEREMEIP
Sequence of EZH2 (Q15022 whole entry partner): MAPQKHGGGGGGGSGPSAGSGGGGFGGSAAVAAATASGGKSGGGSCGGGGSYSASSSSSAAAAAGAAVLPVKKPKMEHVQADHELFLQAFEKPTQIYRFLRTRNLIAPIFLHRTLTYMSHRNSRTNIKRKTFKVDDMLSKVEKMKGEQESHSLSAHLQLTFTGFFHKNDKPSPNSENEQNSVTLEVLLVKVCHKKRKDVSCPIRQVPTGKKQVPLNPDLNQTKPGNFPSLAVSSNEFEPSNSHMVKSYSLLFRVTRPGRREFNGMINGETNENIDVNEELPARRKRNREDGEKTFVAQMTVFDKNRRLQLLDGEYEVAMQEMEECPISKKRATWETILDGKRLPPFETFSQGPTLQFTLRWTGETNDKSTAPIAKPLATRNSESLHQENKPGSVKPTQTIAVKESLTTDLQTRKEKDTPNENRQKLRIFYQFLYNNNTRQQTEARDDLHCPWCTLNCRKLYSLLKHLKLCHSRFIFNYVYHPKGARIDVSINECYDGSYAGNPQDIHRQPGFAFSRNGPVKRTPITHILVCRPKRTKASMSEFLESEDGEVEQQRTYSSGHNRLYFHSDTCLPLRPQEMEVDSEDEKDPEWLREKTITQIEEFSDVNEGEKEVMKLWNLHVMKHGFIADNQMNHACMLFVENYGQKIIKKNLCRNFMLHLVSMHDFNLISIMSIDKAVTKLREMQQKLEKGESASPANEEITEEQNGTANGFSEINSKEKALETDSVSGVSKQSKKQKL
Sequence of EZH2 (O75530 whole entry partner): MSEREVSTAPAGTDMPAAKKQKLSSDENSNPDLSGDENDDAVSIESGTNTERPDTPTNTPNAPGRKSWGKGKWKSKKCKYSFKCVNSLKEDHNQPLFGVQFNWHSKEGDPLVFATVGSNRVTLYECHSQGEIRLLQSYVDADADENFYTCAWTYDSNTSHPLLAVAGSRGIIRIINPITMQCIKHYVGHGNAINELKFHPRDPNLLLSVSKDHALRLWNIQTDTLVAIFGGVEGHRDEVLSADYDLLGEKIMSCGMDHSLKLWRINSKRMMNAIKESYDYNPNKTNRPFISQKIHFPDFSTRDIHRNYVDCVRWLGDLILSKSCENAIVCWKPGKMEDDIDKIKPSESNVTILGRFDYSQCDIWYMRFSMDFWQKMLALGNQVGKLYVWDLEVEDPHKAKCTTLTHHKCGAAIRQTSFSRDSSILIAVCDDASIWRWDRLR
Sequence of EZH2 (Q09028 whole entry partner): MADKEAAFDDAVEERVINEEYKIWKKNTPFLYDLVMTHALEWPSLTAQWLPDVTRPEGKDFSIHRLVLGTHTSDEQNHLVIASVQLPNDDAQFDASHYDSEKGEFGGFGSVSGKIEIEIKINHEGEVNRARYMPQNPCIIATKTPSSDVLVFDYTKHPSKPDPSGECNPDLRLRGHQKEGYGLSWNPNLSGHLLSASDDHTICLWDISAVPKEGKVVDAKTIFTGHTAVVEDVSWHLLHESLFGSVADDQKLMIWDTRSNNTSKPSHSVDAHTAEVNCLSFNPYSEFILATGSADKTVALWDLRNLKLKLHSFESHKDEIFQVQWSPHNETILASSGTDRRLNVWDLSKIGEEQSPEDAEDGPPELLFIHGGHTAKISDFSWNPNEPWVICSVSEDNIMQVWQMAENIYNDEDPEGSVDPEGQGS
ELISA protocol: Cell lysates were transferred to the wells of a 384-well plate and the final volume was adjusted to 50 μL per well with PBS. The plate was sealed, centrifuged at 2,000 rpm for 2 min and incubated at 4° C. for about 16 h. The plate was washed with TBST buffer (1×TBS (10×TBS: 24.2 g Tris (Sigma, T6066), 80 g NaCl (Sigma, S3014) to 1 L of water and adjust pH to 7.6 with HCl) with 0.1% Tween-20). Blocking buffer (TBST, 5% BSA; 50 μL per well) was added and the plate was incubated for 1 h at rt. The blocking buffer was removed and primary antibody was added (30 μL per well). […] The primary antibody was incubated in the plate at rt for 1 h. The wells were washed with TBST and incubated with secondary antibody for 1 h at rt.
After 1 h of incubation at rt, the wells were washed with TBST. […] The signal was read using a PerkinElmer Envision Reader. The H3K27 methylation readouts were normalized using H3 signal and then percentage inhibition was calculated against the samples treated with DO. The data were fit to a dose response curve using the program Helios to get the IC50 values of the test compound.
In general terms: ELISA stands for enzyme-linked immunosorbent assay.

Assay [3] deals with B cell lymphoma cell KARPAS422. The experiment in a line: Analysis of cell proliferation, KARPAS422. The following applies: KARPAS422 after 14 days of treatment, read-out: antiproliferative activities IC50. The assay is classed as cell-based, human. The procedure:
B cell lymphoma cell KARPAS422 was cultured using standard cell culture conditions in RPMI-1640 (Invitrogen, cat #11875) supplemented with 15% FBS (Invitrogen, cat #10099-141) in humidified incubator at 37° C., 5% CO2. To assess the effect of PRC2 inhibition on cell proliferation, exponentially growing cells were seeded at a density of 1×10^5 cells/mL in 12-well plate (Corning, cat #CLS3513). After cell seeding, a compound of the invention was added to the cell media (in concentrations ranging from 0 to 100 μM, 3× dilution series). Viable cell numbers were determined every 3-4 days for up to 14 days using Vi-CELL (Beckman Coulter). On days of cell counting, fresh growth media and compound were replenished and cells split back to a density of 1×10^5 cells/mL. Total cell number is expressed as split-adjusted viable cells per mL. The dose response curves and IC50 values were generated using Prism.

[4] abbreviates: Homo sapiens, KARPAS-422, 336 h.

Sequence of wild type PRC2 (wtPRC2) complex (Q15910 whole entry): as the sequence (Q15910 whole entry) above
Sequence of wild type PRC2 (wtPRC2) complex (Q15022 whole entry partner): as the sequence (Q15022 whole entry partner) above
Sequence of wild type PRC2 (wtPRC2) complex (O75530 whole entry partner): as the sequence (O75530 whole entry partner) above
Sequence of wild type PRC2 (wtPRC2) complex (Q09028 whole entry partner): as the sequence (Q09028 whole entry partner) above
Sequence of wild type PRC2 (wtPRC2) complex (Q6ZN18 whole entry partner): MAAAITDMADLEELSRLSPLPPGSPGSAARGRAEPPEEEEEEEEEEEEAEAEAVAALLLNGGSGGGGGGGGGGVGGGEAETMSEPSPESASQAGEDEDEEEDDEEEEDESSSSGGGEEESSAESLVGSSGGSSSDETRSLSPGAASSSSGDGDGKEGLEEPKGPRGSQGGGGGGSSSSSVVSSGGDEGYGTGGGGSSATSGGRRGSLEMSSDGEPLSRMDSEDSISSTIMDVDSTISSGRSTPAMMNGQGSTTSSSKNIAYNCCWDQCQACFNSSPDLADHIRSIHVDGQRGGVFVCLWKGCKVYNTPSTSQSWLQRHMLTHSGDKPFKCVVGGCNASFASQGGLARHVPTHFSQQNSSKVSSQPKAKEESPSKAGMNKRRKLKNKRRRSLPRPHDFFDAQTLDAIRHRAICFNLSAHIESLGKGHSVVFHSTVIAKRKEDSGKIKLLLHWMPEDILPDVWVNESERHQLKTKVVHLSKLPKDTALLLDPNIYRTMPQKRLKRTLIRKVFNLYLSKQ

In general, IC50 refers to the concentration needed to halve the response being measured. `OCC1COC(c2cnc(NC[C@H]3CC[C@H](Nc4ccc5ccnc(Cl)c5n4)CC3)nc2)OC1` (mixture of isomers) [Compound C34, (2-(2-((((1,4-trans)-4-((8-chloro-1,7-naphthyridin-2-yl)amino)cyclohexyl)methyl)amino)pyrimidin-5-yl)-1,3-dioxan-5-yl)methanol]: the concentration for half-maximal inhibition (IC50) worked out at 0.028 µM in assay [1], 0.038 µM in assay [2] and 0.018 µM in assay [3] (setting [4]).
For the compound `C[C@H](C(=O)NC1COC1)c1cnc(NC[C@H]2CC[C@H](Nc3ccc4ccnc(Cl)c4n3)CC2)nc1` (relative stereo) [Compound C53, (S)-2-(2-((((1,4-trans)-4-((8-chloro-1,7-naphthyridin-2-yl)amino)cyclohexyl)methyl)amino)pyrimidin-5-yl)-N-(oxetan-3-yl)propanamide], the IC50 in assay [3] was found to be 0.0003 µM.
`COc1nccc2ccc(N[C@H]3CC[C@H](CNc4ncc(N)cn4)CC3)nc12` [Compound C1, N^2-(((1,4-trans)-4-((8-methoxy-1,7-naphthyridin-2-yl)amino)cyclohexyl)methyl)pyrimidine-2,5-diamine]: the IC50 in assay [1] turned out to be 0.121 µM; in assay [2] it was 0.042 µM; in assay [3] (setting [4]) it was 0.02 µM.
Consider `COc1nccc2ccc(N[C@H]3CC[C@H](CNc4ncc(NC(C)=O)cn4)CC3)nc12` [Compound C6, N-(2-((((1,4-trans)-4-((8-methoxy-1,7-naphthyridin-2-yl)amino)cyclohexyl)methyl)amino)pyrimidin-5-yl)acetamide], for which the results for the IC50 in assay [1], in assay [2] and in assay [3] (setting [4]) were 0.101 µM, 0.066 µM and 0.069 µM, respectively.
With `COc1nccc2ccc(N[C@H]3CC[C@H](CNc4ncc(C(=O)N5CCNCC5)cn4)CC3)nc12` [Compound C8, (2-((((1,4-trans)-4-((8-methoxy-1,7-naphthyridin-2-yl)amino)cyclohexyl)methyl)amino)pyrimidin-5-yl)(piperazin-1-yl)methanone], the IC50 was 0.07 µM in assay [1], 0.077 µM in assay [2] and 0.072 µM in assay [3] (setting [4]).
`COC(=O)Nc1cnc(NC[C@H]2CC[C@H](Nc3ccc4ccnc(Cl)c4n3)CC2)nc1` [Compound C15, Methyl (2-((((1,4-trans)-4-((8-chloro-1,7-naphthyridin-2-yl)amino)cyclohexyl)methyl)amino)pyrimidin-5-yl)carbamate]: the IC50 was determined as 0.017 µM in assay [1], 0.028 µM in assay [2] and 0.031 µM in assay [3] (setting [4]).
As to `Clc1nccc2ccc(N[C@H]3CC[C@H](CNc4ncc(CNC5COC5)cn4)CC3)nc12` [Compound C27, 8-chloro-N-((1,4-trans)-4-(((5-((oxetan-3-ylamino)methyl)pyrimidin-2-yl)amino)methyl)cyclohexyl)-1,7-naphthyridin-2-amine], the values for the IC50 in assay [1], in assay [2] and in assay [3] (setting [4]) were 0.027 µM, 0.019 µM and 0.008 µM, respectively.
Turning to `CC1(NCc2cnc(NC[C@H]3CC[C@H](Nc4ccc5ccnc(Cl)c5n4)CC3)nc2)COC1` [Compound C28, 8-chloro-N-((1,4-trans)-4-(((5-(((3-methyloxetan-3-yl)amino)methyl)pyrimidin-2-yl)amino)methyl)cyclohexyl)-1,7-naphthyridin-2-amine], the IC50 stood at 0.031 µM in assay [1], 0.005 µM in assay [2] and 0.002 µM in assay [3] (setting [4]).
Take `O=C(Cc1cnc(NC[C@H]2CC[C@H](Nc3ccc4ccnc(Cl)c4n3)CC2)nc1)NC1COC1` [Compound C36, 2-(2-((((1,4-trans)-4-((8-chloro-1,7-naphthyridin-2-yl)amino)cyclohexyl)methyl)amino)pyrimidin-5-yl)-N-(oxetan-3-yl)acetamide]: the IC50 was found to be 0.009 µM in assay [1], 0.011 µM in assay [2] and 0.003 µM in assay [3] (setting [4]).
With `CN(C(=O)Cc1cnc(NC[C@H]2CC[C@H](Nc3ccc4ccnc(Cl)c4n3)CC2)nc1)C1COC1` [Compound C37, 2-(2-((((1,4-trans)-4-((8-chloro-1,7-naphthyridin-2-yl)amino)cyclohexyl)methyl)amino)pyrimidin-5-yl)-N-methyl-N-(oxetan-3-yl)acetamide], the results for the IC50 in assay [1], in assay [2] and in assay [3] (setting [4]) were 0.015 µM, 0.002 µM and 0.0007 µM, respectively.
For `O=C(Cc1ccc(NC[C@H]2CC[C@H](Nc3ccc4ccnc(Cl)c4n3)CC2)nc1)NC1COC1` [Compound C42, 2-(6-((((1,4-trans)-4-((8-chloro-1,7-naphthyridin-2-yl)amino)cyclohexyl)methyl)amino)pyridin-3-yl)-N-(oxetan-3-yl)acetamide], in that order: 0.018 µM, 0.007 µM and 0.002 µM.
Consider `N#CCCN(C(=O)Cc1cnc(NC[C@H]2CC[C@H](Nc3ccc4ccnc(Cl)c4n3)CC2)nc1)C1COC1` [Compound C49, 2-(2-((((1,4-trans)-4-((8-chloro-1,7-naphthyridin-2-yl)amino)cyclohexyl)methyl)amino)pyrimidin-5-yl)-N-(2-cyanoethyl)-N-(oxetan-3-yl)acetamide], for which the IC50 in assay [1] stood at 0.008 µM; in assay [2], 0.002 µM; in assay [3] (setting [4]), 0.0005 µM.
Regarding `COC(=O)N(C)c1cnc(NC[C@H]2CC[C@H](Nc3ccc4ccnc(Cl)c4n3)CC2)nc1` [Compound C65, Methyl (2-((((1,4-trans)-4-((8-chloro-1,7-naphthyridin-2-yl)amino)cyclohexyl)methyl)amino)pyrimidin-5-yl)(methyl)carbamate], the IC50 is 0.059 µM in assay [1] and 0.065 µM in assay [2].
On to `Nc1cnc(NC[C@H]2CC[C@H](Nc3ccc4ccnc(OC(F)F)c4n3)CC2)nc1` [Compound C66, N^2-(((1,4-trans)-4-((8-(difluoromethoxy)-1,7-naphthyridin-2-yl)amino)cyclohexyl)methyl)pyrimidine-2,5-diamine], for which the IC50 turned out to be 0.204 µM in assay [1] and 0.16 µM in assay [2].
For the compound `Clc1nccc2ccc(N[C@H]3CC[C@H](CNc4ncc(-c5nnc[nH]5)cn4)CC3)nc12` [Compound C67, N-((1,4-trans)-4-(((5-(4H-1,2,4-triazol-3-yl)pyrimidin-2-yl)amino)methyl)cyclohexyl)-8-chloro-1,7-naphthyridin-2-amine], the results for the IC50 in assay [1] and in assay [2] were 0.029 µM and 0.036 µM, respectively.
Turning to `CC(CO)Oc1cnc(NC[C@H]2CC[C@H](Nc3ccc4ccnc(Cl)c4n3)CC2)nc1` (stereo partly drawn) [Compound C68, 2-((2-((((1,4-trans)-4-((8-chloro-1,7-naphthyridin-2-yl)amino)cyclohexyl)methyl)amino)pyrimidin-5-yl)oxy)propan-1-ol], the values for the IC50 in assay [1] and in assay [2] were 0.049 µM and 0.018 µM, respectively.
Take `C[C@@H](C(=O)N1CC(O)C1)c1cnc(NC[C@H]2CC[C@H](Nc3ccc4ccnc(Cl)c4n3)CC2)nc1` [Compound C71, (R)-2-(2-((((1,4-trans)-4-((8-chloro-1,7-naphthyridin-2-yl)amino)cyclohexyl)methyl)amino)pyrimidin-5-yl)-1-(3-hydroxyazetidin-1-yl)propan-1-one]: in assay [3] (setting [4]), the IC50 was 0.002 µM.
Take `O=C(NC1COC1)C(CO)c1cnc(NC[C@H]2CC[C@H](Nc3ccc4ccnc(Cl)c4n3)CC2)nc1` (stereo partly drawn) [Compound C72, 2-(2-((((1,4-trans)-4-((8-chloro-1,7-naphthyridin-2-yl)amino)cyclohexyl)methyl)amino)pyrimidin-5-yl)-3-hydroxy-N-(oxetan-3-yl)propanamide]: the IC50 in assay [1] was 0.049 µM; in assay [2], 0.056 µM.
As for `O=C(NC1COC1)[C@H](O)c1cnc(NC[C@H]2CC[C@H](Nc3ccc4ccnc(Cl)c4n3)CC2)nc1` [Compound C76, (R)-2-(2-((((1,4-trans)-4-((8-chloro-1,7-naphthyridin-2-yl)amino)cyclohexyl)methyl)amino)pyrimidin-5-yl)-2-hydroxy-N-(oxetan-3-yl)acetamide], the IC50 in assay [3] (setting [4]) stood at 0.001 µM.
